Our source for the IC50 and EC50 values is US9187458B2, “Cyanoquinoline derivatives” (Tianjin Hemay Bio-Tech Co., LTD., priority 2010, dated 2015).

One assay concerns SK-OV-3 cells. Description: SK-OV-3 Cell Growth Inhibition Test (MTT Assay). Format: cell-based. Particulars: Homo sapiens, 72 h incubation. The procedure:
SK-OV-3 Cell Growth Inhibition Test (MTT Assay)
Cell strains: SK-OV-3 (human ovarian cancer cell strains);
Culture medium: 90% McCoy's 5A+10% FBS;
(§1) 1. A plate (10 cm) of cells in logarithmic growth phase normally cultured was collected;
2. The culture solution was sucked out. The plate was washed with 5 ml of PBS 1-2 times;
3. PBS was sucked out. 1.5 ml of 0.25% pancreatin was added to infiltrate the cells for 1 min;
4. The pancreatin was sucked out. The culture plate was placed in an incubator. Digestion was carried out for about 5 min at 37° C.;
5. 4.5 ml of complete culture solution was added to the culture plate to stop the digestion.T the cells were carefully scoured with micropipette (1 ml) to give a uniform cell suspension. The suspension was implanted into a 96-well cell culture disc by 4000 cells/100 μl per well. The culture plate was incubated overnight under 5% CO2 at 37° C. In day 2, 100 μl of culture solution comprising a compound was added in each well, and further incubated for 72 h under 5% CO2 at 37° C.
6. The culture solution was sucked out;
7. 100 μl of serum-free culture solution containing 0.5 mg/ml MTT was added in each well, and incubated for 3 h;
8. The culture solution was carefully sucked out;
9. 100 μl of DMSO was added in each well and vibrated to dissolve;
10. OD values were determined at 490 nM.
(§2) 1. Calculation of Relative Inhibition Ratio The inhibition ratio of a compound on cell growth=(PC−n)/(PC−NC)×100%
(§3) IC50: Concentration of a compound where inhibition ratio was 50%. IC50 values were fitted with Origin7.5.

Another assay addresses T1, Her2 kinase (Homo sapiens, UniProt P04626).
T1 construct: purchased Cell Signaling Tech #7382
Description: Inhibition Activity Assay on Her2 Enzyme (ELISA, PGT substrate). Format: biochemical. Particulars: 8 min at 4° C., read-out: Inhibition Activity (EC50) on Her-2. The procedure:
Inhibition Activity Assay on Her2 Enzyme
1. Her2 kinase, Cell Signaling Tech, #7382, Lot. 2, reserved at −80° C.;
2. PBST: PBS+0.05% (v/v) Tween 20;
3. Confining liquid: 3% of BSA in PBS;
4. HEPEs buffer (2×): 50 mM HEPEs, 20 mM MgCl2, 0.1 mM MnCl2, 0.2 mM Na3VO4, adjusted to pH of 7.4 with NaOH;
5. PGT, Sigma, Cat#P0275): 2 mg/ml of stock solution was prepared by dissolving PBS, reserved at −20° C.
6. ATP: […] of stock solution was prepared by dissolving ddH2O, reserved at −20° C.;
7. Mice anti-phosphorylation tyrosine-HRP: Invitrogen-037720, 0.5 mg/ml, reserved at 4° C.;
8. TMB: Cell Signaling Tech, Cat #7004L;
9. DTT: 2.5 M of stock solution was prepared with ddH2O, reserved at −20° C. Before use, 2×HEPEs buffer was added in the solution to the final concentration of 1.25 mM.
1. 2 mg/ml of PGT was diluted with PBS to 0.2 mg/ml. 60 μl of the resulting solution was added in each well. The elisa plate was placed in a refrigerator at 4° C. and coated overnight;
2. The coating solution was discarded to stop the coating. The plate was washed four times with PBS, and then beaten to dryness;
3. The elisa plate was placed in a refrigerator at 4° C., drained out and stood for 3h.
4. […] of aqueous solution of each compound was diluted with ddH2O to a desirable concentration. Then, the solution was added in the corresponding elisa well by 25 μl/well;
5. 2 nM of ATP solution was diluted with ddH2O to 25 folds and then sufficiently mixed. The resulting solution was separately added in each elisa well by 25 μl per well (25 μl ddH2O was added in the negative control);
6. Her2 kinase was diluted with 2×TKB to 800 folds. The resulting solution was added in the elisa well by 50 μl per well. Then, the enzyme reaction began. Moreover, the elisa plate was immediately placed in a micro-oscillator. The reaction is carried out for 8 min at the temperature of 4° C.;
7. 2% of SDS was added in the elisa well to stop the reaction by adding 100 μl of SDS in each well. The solution was sufficiently mixed on the micro-oscillator to sufficiently mix for about 5 min;
8. The reaction solution was sucked out. The plate was washed four times with PBST. After the plate was beaten to dryness, 0.25 μg/ml of mice anti-phosphorylation tyrosine-HRP which was diluted with confining liquid was added in the plate by 100 μl per well, and then reacted for 30 min at the room temperature.
9. The antibody reaction solution was sucked out. The plate was washed six times with PBST. After the plate was beaten to dryness, TMB peroxidase substrate was added in the plate with 100 μl/well, and then reacted in the dark for 15 min at the room temperature;
10. 100 μl of 2N H2SO4 was added in the solution to stop the chromogenic reaction. After the bubbles were cleansed, the solution was measured in elisa at 450 nm.
OD values were converted in relative inhibition ratios according to following formula: Relative inhibition ratio=[1−(experiment values−NC mean values)/(PC mean values−NC mean values)]×100%

In the next assay the test system is NCI-H1650 cells. Description: NCI-H1650 Cell Growth Inhibition Test (SRB Assay). Type of assay: cell-based. To be noted: Homo sapiens, 72 h incubation. The procedure:
NCI-H1650 Cell Growth Inhibition Test (SRB Assay)
1. Cell strains: NCI-H1650 (human non-small cell lung cancer cell strains);
2. SRB, 0.4% (w/v) working solution was formulated with 1% glacial acetic acid and reserved at 4° C.; antitumor compounds; DMSO
as §1
2. The culture solution was sucked out. The plate was washed with 5 mL of PBS 1-2 times;
3. 1.5 mL of 0.25% pancreatin was added to the plate to infiltrate the cells;
4. The pancreatin was sucked out. The culture plate was placed in an incubator. Digestion was carried out for about 3 min at 37° C.;
5. 4 mL of complete culture solution was added to the culture plate to stop the digestion. The cells were carefully scoured with micropipette (1 ml) to give a uniform single cell suspension. The suspensin was implanted into a 96-well cell culture plate by 6000 cells/100 μl per well. The culture plate was incubated overnight under 5% CO2 at 37° C. In day 2, 100 μl of culture solution comprising a compound was added in each well, and further incubated for 72 h under 5% CO2 at 37° C.;
6. The culture solution was sucked out. 100 uL of TCA fixed cells which were diluted to 10% were added to each well. The plate was kept in a refrigerator for 1 h at 4° C.
7. TCA stationary liquid was sucked out. Each well was washed with 150 μL of ddH2O five times;
8. After the stationary liquid was cleansed, the plate was dried in the air at the room temperature;
9. 60 μL of SRB staining solution was added in each well. The well was stained for 15 min at the room temperature;
10. The SRB staining solution was sucked out. Each well was washed with 150 μL of 1% glacial acetic acid five times;
11. After the SRB staining solution was cleansed, the plate was dried in the air at the room temperature;
12. 100 μL of 10 mM Tris was added in each well, the plate was vibrated to dissolve out SRB;
13. OD values were determined at 570 nM.
as §2, §3

SMILES strings stand for the structures.

T1 sequence (P04626 676-1255 limits assumed): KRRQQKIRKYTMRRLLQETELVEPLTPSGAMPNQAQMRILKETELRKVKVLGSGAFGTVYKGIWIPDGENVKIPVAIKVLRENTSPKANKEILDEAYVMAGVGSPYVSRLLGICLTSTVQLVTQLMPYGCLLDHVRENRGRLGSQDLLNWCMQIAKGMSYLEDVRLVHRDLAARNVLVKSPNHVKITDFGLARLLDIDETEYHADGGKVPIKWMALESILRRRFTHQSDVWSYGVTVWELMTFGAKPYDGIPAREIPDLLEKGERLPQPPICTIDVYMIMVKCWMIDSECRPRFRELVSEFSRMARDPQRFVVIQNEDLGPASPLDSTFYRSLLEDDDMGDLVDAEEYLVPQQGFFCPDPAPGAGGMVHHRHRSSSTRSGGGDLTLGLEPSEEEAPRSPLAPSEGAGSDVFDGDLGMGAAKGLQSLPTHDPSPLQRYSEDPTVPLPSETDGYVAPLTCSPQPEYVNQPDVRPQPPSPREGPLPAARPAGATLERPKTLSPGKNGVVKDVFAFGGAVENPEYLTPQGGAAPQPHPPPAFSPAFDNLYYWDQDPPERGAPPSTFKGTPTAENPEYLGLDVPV

A word on the IC50: it is the concentration at which inhibition is half-maximal. For orientation: EC50 means the concentration needed to bring the measured effect to its halfway point. In the case of `CN(C)C/C=C/C(=O)Nc1cc2c(Nc3ccc(F)c(Cl)c3)c(C#N)cnc2cc1OC1CCOC1` (centres unmarked) [Example 4, (E)-N-(4-(3-CHLORO-4-FLUOROPHENYLAMINO)-3-CYANO-7-(TETRAHYDROFURAN-3-YL-OXY)QUINOLIN-6-YL)-4-(DIMETHYLAMINO)-BUT-2-ENAMIDE], the IC50 in the assay with SK-OV-3 cells came to 409 nM. Further, the EC50 on Her2 kinase amounted to 161 nM. The corresponding values for `C#Cc1cccc(Nc2c(C#N)cnc3cc(O[C@H]4CCOC4)c(NC(=O)/C=C/CN(C)C)cc23)c1` [Example 140, (S,E)-N-(3-CYANO-4-(3-ETHYNYLPHENYLAMINO)-7-(TETRAHYDROFURAN-3-YL-OXY)QUINOLIN-6-YL)-4-(DIMETHYLAMINO)-BUT-2-ENAMIDE] are 286 nM and 110 nM.

For the compound `C#Cc1cccc(Nc2c(C#N)cnc3cc(OC4CCOC4)c(NC(=O)/C=C/CN(C)C)cc23)c1` (centres unmarked) [Example 5, (E)-N-(3-CYANO-4-(3-ETHYNYLPHENYLAMINO)-7-(TETRAHYDROFURAN-3-YL-OXY)QUINOLIN-6-YL)-4-(DIMETHYLAMINO)-BUT-2-ENAMIDE], it took 195 nM to reach half-maximal inhibition with SK-OV-3 cells (IC50). For the same compound, the EC50 at Her2 kinase was 96 nM. As to `CN(C)C/C=C/C(=O)Nc1cc2c(Nc3ccc(OCc4ccccn4)c(Cl)c3)c(C#N)cnc2cc1O[C@H]1CCOC1` [Example 138, (S,E)-N-(4-(3-CHLORO-4-(PYRIDIN-2-YL-METHOXY)PHENYLAMINO)-3-CYANO-7-(TETRAHYDROFURAN-3-YL-OXY)QUINOLIN-6-YL)-4-(DIMETHYLAMINO)-BUT-2-ENAMIDE], the IC50 in the assay with SK-OV-3 cells was 457 nM; in the assay with NCI-H1650 cells, 1100 nM. Moreover, the half-maximal effective concentration (EC50) on Her2 kinase came out at 244 nM. In the assay with SK-OV-3 cells, `C#Cc1cccc(Nc2c(C#N)cnc3cc(O[C@@H]4CCOC4)c(NC(=O)/C=C/CN(C)C)cc23)c1` [Example 141, (R,E)-N-(3-CYANO-4-(3-ETHYNYLPHENYLAMINO)-7-(TETRAHYDROFURAN-3-YL-OXY)QUINOLIN-6-YL)-4-(DIMETHYLAMINO)-BUT-2-ENAMIDE] had an IC50 of 283 nM. `CN(C)C/C=C/C(=O)Nc1cc2c(Nc3ccc(F)c(Cl)c3)c(C#N)cnc2cc1O[C@H]1CCOC1` [Example 142, (S,E)-N-(4-(3-CHLORO-4-FLUOROPHENYLAMINO)-3-CYANO-7-(TETRAHYDROFURAN-3-YL-OXY)QUINOLIN-6-YL)-4-(DIMETHYLAMINO)-BUT-2-ENAMIDE]: the half-maximal inhibitory concentration (IC50) with SK-OV-3 cells came to 553 nM. With `CN(C)C/C=C/C(=O)Nc1cc2c(Nc3ccc(OCc4cccc(F)c4)c(Cl)c3)c(C#N)cnc2cc1OC1CCOC1` (centres unmarked) [Example 9, (E)-N-(4-(4-(3-FLUOROBENZYLOXY)-3-CHLOROPHENYLAMINO)-3-CYANO-7-(TETRAHYDROFURAN-3-YL-OXY)QUINOLIN-6-YL)-4-(DIMETHYLAMINO)-BUT-2-ENAMIDE], the IC50 turned out to be 469 nM in the assay with SK-OV-3 cells and 636 nM with NCI-H1650 cells. Further, the EC50 at Her2 kinase was 221 nM. On to `CN(C)C/C=C/C(=O)Nc1cc2c(Nc3ccc(OCc4ccccn4)c(Cl)c3)c(C#N)cnc2cc1O[C@@H]1CCOC1` [Example 139, (R,E)-N-(4-(3-CHLORO-4-(PYRIDIN-2-YL-METHOXY)PHENYLAMINO)-3-CYANO-7-(TETRAHYDROFURAN-3-YL-OXY)QUINOLIN-6-YL)-4-(DIMETHYLAMINO)-BUT-2-ENAMIDE], for which the IC50 with SK-OV-3 cells is 371 nM; in the assay on NCI-H1650 cells it was 1130 nM. As to `CN(C)C/C=C/C(=O)Nc1cc2c(Nc3ccc(OCc4ccccn4)c(Cl)c3)c(C#N)cnc2cc1OC1CCOC1` (centres unmarked) [Example 21, (E)-N-(4-(3-CHLORO-4-(PYRIDIN-2-YL-METHOXY)PHENYLAMINO)-3-CYANO-7-(TETRAHYDROFURAN-3-YL-OXY)QUINOLIN-6-YL)-4-(DIMETHYLAMINO)-BUT-2-ENAMIDE], on Her2 kinase, the concentration for a half-maximal effect (EC50) turned out to be 234 nM.
